Test results taken from patent US20110162981A1, “METHODS AND COMPOSITIONS FOR PREVENTING, REDUCTING OR TREATING DAMAGE CAUSED BY ISCHEMIA AND SCHEMIA-LIKE CONDITIONS” (priority 2008, published 2011).

Tested on: ischemia-induced brain lesion (middle cerebral artery occlusion)
Assay: MCAO/reperfusion stroke model, TTC staining lesion volume
Assay type: in vivo, Sprague Dawley rats
Details: ovariectomized female SD rats, 1 hr MCAO

C[C@]12CC[C@@H]3c4ccc(O)cc4CC[C@H]3[C@@H]1CC[C@@H]2O [17 β-Estradiol, 17-beta estradiol]
Ischemic Lesion Volume (means, mm^3) (24 hours after onset of reperfusion, TTC staining, mean): 147.4 mm^3 | reduction of ischemia-induced brain lesion compared with control rats (24 hours reperfusion, vs control diet rats): 48%
